Measurements published in patent publication US20050053647A1, “Pharmaceutical product comprising the active substance diamorphine, and its use in a process for treating opiate addiction” (priority 1999, published 2005).
Converted amounts (≈) assume the structure as drawn.

Key:
[1] = In vitro skin permeation from TTS, nude guinea pig skin model; type: in vitro ADME
Protocol: Diamorphine is determined as total of heroin+morphine metabolite.

[2] = Rate of hydrolytic breakdown of diamorphine base in solvents (diamorphine content over time); details: for Diamorphine content: area percentages
heroin addicts = details: cited from earlier work
[3] = Saturation solubility of diamorphine base in solvents

Compound: CC(=O)Oc1ccc2c3c1O[C@H]1[C@@H](OC(C)=O)C=C[C@H]4[C@@H](C2)N(C)CC[C@@]341 [diamorphine base, diamorphine]
- Skin passage in relation to morphine and buprenorphine ([1]; TTS matrix of same base formulation and loading, citrate buffer pH=3.0 + 0,1% NaN3, T=37° C., diamorphine determined as total of heroin + morphine metabolite): better skin passage
- Skin flux in flow equilibrium (permeation rate) compared with morphine and buprenorphine ([1]; nude guinea pig skin, TTS of identical formulation, in some cases): markedly higher
- Effect of combinations of vitamin E with a further aprotic solvent on the rate of hydrolytic breakdown ([2]; combinations of vitamin E with solvent (Table 1)): surprisingly positive stabilizing effect
- Diamorphine content ([2]; solvent Benzyl nicotinate/Vitamin E 1:1, t = 0.5 h): 99.2%
- Diamorphine content ([2]; solvent Benzyl nicotinate/Vitamin E 1:1, t = 24 h): 99.0%
- Diamorphine content ([2]; solvent Benzyl nicotinate, t = 0.5 h): 97.8%
- Diamorphine content ([2]; solvent Benzyl nicotinate, t = 24 h): 86.5%
- Diamorphine content ([2]; solvent Dimethylisosorbide/Vitamin E 1:1, t = 0.5 h): 100%
- Diamorphine content ([2]; solvent Dimethylisosorbide/Vitamin E 1:1, t = 24 h): 99.8%
- Diamorphine content ([2]; solvent Dimethylisosorbide, t = 0.5 h): 98.5%
- Diamorphine content ([2]; solvent Dimethylisosorbide, t = 24 h): 93.5%
- Diamorphine content ([2]; solvent Lemon oil/Vitamin E 1:1, t = 0.5 h): 99.1%
- Diamorphine content ([2]; solvent Lemon oil/Vitamin E 1:1, t = 24 h): 98.9%
- Diamorphine content ([2]; solvent Lemon oil, t = 0.5 h): 93.5%
- Diamorphine content ([2]; solvent Lemon oil, t = 24 h): 80.5%
- Diamorphine content ([2]; solvent N-Methylpyrrolidone/Vitamin E 1:1, t = 0.5 h): 99.8%
- Diamorphine content ([2]; solvent N-Methylpyrrolidone/Vitamin E 1:1, t = 24 h): 99.7%
- Diamorphine content ([2]; solvent N-Methylpyrrolidone, t = 0.5 h): 97.8%
- Diamorphine content ([2]; solvent N-Methylpyrrolidone, t = 24 h): 87.8%
- Diamorphine content ([2]; solvent Oleic acid/Vitamin E 1:1, t = 0.5 h): 99.6%
- Diamorphine content ([2]; solvent Oleic acid/Vitamin E 1:1, t = 24 h): 99.6%
- Diamorphine content ([2]; solvent Oleic acid, t = 0.5 h): 97.4%
- Diamorphine content ([2]; solvent Oleic acid, t = 24 h): 90.3%
- Diamorphine content ([2]; solvent R-(+)-Limonene/Vitamin E 1:1, t = 0.5 h): 99.7%
- Diamorphine content ([2]; solvent R-(+)-Limonene/Vitamin E 1:1, t = 24 h): 99.6%
- Diamorphine content ([2]; solvent R-(+)-Limonene, t = 0.5 h): 96.7%
- Diamorphine content ([2]; solvent R-(+)-Limonene, t = 24 h): 87.7%
- Diamorphine content ([2]; solvent Tween 80/Vitamin E 1:1, t = 0.5 h): 100%
- Diamorphine content ([2]; solvent Tween 80/Vitamin E 1:1, t = 24 h): 100%
- Diamorphine content ([2]; solvent Tween 80, t = 0.5 h): 99%
- Diamorphine content ([2]; solvent Tween 80, t = 24 h): 93.4%
- Diamorphine content ([2]; solvent Vitamin E, t = 0.5 h): 100%
- Diamorphine content ([2]; solvent Vitamin E, t = 24 h): 100%
- State of health of the heroin addicts (heroin addicts; state-controlled administration, intravenous or pulmonary (cigarettes), 969 heroin addicts): Marked improvements
- solubility ([3]; Benzyl nicotinate, organic solvent or mixture): 23.2 mg/mL (≈ 62.8 mM)
- solubility ([3]; Benzyl nicotinate/Vitamin E 1:1, organic solvent or mixture): 17.7 mg/mL (≈ 47.9 mM)
- solubility ([3]; Dimethylisosorbide, organic solvent or mixture): 12.8 mg/mL (≈ 34.6 mM)
- solubility ([3]; Dimethylisosorbide/Vitamin E 1:1, organic solvent or mixture): 9.82 mg/mL (≈ 26.6 mM)
- solubility ([3]; Lemon oil, oil or lipid): 10.3 mg/mL (≈ 27.9 mM)
- solubility ([3]; Lemon oil/Vitamin E 1:1, oil or lipid): 8 mg/mL (≈ 21.7 mM)
- solubility ([3]; N-Methylpyrrolidone, organic solvent or mixture): 32.2 mg/mL (≈ 87.2 mM)
- solubility ([3]; N-Methylpyrrolidone/Vitamin E 1:1, organic solvent or mixture): 24.8 mg/mL (≈ 67.1 mM)
- solubility ([3]; Oleic acid, oil or lipid): 22.6 mg/mL (≈ 61.2 mM)
- solubility ([3]; Oleic acid/Vitamin E 1:1, oil or lipid): 17.2 mg/mL (≈ 46.6 mM)
- solubility ([3]; R-(+)-Limonene, organic solvent or mixture): 25.1 mg/mL (≈ 67.9 mM)
- solubility ([3]; R-(+)-Limonene/Vitamin E 1:1, organic solvent or mixture): 19 mg/mL (≈ 51.4 mM)
- solubility ([3]; Tween 80, organic solvent or mixture): 5.81 mg/mL (≈ 15.7 mM)
- solubility ([3]; Tween 80/Vitamin E 1:1, organic solvent or mixture): 4.45 mg/mL (≈ 12 mM)
- solubility ([3]; Vitamin E, oil or lipid): 1.62 mg/mL (≈ 4.39 mM)

Compound: CCC(=O)C(CC(C)N(C)C)(c1ccccc1)c1ccccc1 (centres unmarked) [methadone]
- Therapy of heroin dependents compared with heroin (heroin addicts; even on intravenous administration, Swiss experiment): inferior to heroin
